# Experimental data as given in ChEMBL document CHEMBL1152860, “Synthesis and antiproliferative activity of 3-amino-N-phenyl-1H-indazole-1-carboxamides” (2009).
# The source made the active and inactive calls. No cut-off for these calls is given here.
# How the values were obtained:
# [1] = system: MCF7; assay: Growth inhibition of human MCF7 cells after 48 hrs by SRB assay; type: functional; settings: MCF7, 48 h
# [2] = system: ACHN; assay: Growth inhibition of human ACHN cells after 48 hrs by SRB assay; type: functional
# [3] = system: SN12C; assay: Growth inhibition of human SN12C cells after 48 hrs by SRB assay; type: functional
# [4] = system: DU-145; assay: Growth inhibition of human DU145 cells after 48 hrs by SRB assay; type: functional; settings: DU-145, 48 h
# [5] = system: NCI-H226; assay: Growth inhibition of human NCI-H226 cells after 48 hrs by SRB assay; type: functional; settings: NCI-H226, 48 h
# [6] = system: NCI-H522; assay: Growth inhibition of human NCI-H522 cells after 48 hrs by SRB assay; type: functional; settings: NCI-H522, 48 h
# [7] = system: OVCAR-3; assay: Growth inhibition of human OVCAR-3 cells after 48 hrs by SRB assay; type: functional; settings: OVCAR-3, 48 h
# [8] = system: MDA-MB-435; assay: Growth inhibition of human MDA-MB-435 cells after 48 hrs by SRB assay; type: functional; settings: MDA-MB-435, 48 h
# [9] = system: MDA-MB-231; assay: Growth inhibition of human MDA-MB-231 cells after 48 hrs by SRB assay; type: functional; settings: MDA-MB-231, 48 h
# [10] = system: NCI-H322M; assay: Growth inhibition of human NCI-H322M cells after 48 hrs by SRB assay; type: functional
# [11] = system: RXF 393; assay: Growth inhibition of human […] cells after 48 hrs by SRB assay; type: functional; settings: RXF 393, 48 h
# [12] = system: SK-MEL-5; assay: Growth inhibition of human SK-MEL-5 cells after 48 hrs by SRB assay; type: functional; settings: SK-MEL-5, 48 h
# [13] = system: HCT-116; assay: Growth inhibition of human HCT116 cells after 48 hrs by SRB assay; type: functional; settings: HCT-116, 48 h
# [14] = system: BT-549; assay: Growth inhibition of human BT549 cells after 48 hrs by SRB assay; type: functional; settings: BT-549, 48 h
# [15] = system: TK-10; assay: Growth inhibition of human TK10 cells after 48 hrs by SRB assay; type: functional; settings: TK-10, 48 h
# [16] = system: PC-3; assay: Growth inhibition of human PC3 cells after 48 hrs by SRB assay; type: functional; settings: PC-3, 48 h
# [17] = Growth inhibition of human Hs 578T cells after 48 hrs by SRB assay; type: functional
# [18] = system: HCT-15; assay: Growth inhibition of human HCT15 cells after 48 hrs by SRB assay; type: functional; settings: HCT-15, 48 h
# [19] = system: 786-0; assay: Growth inhibition of human 786-0 cells after 48 hrs by SRB assay; type: functional; settings: 786-0, 48 h
# [20] = system: HT-29; assay: Growth inhibition of human HT-29 cells after 48 hrs by SRB assay; type: functional; settings: HT-29, 48 h
# [21] = system: U-251; assay: Growth inhibition of human U251 cells after 48 hrs by SRB assay; type: functional; settings: U-251, 48 h
# [22] = system: UACC-257; assay: Growth inhibition of human UACC257 cells after 48 hrs by SRB assay; type: functional; settings: UACC-257, 48 h
# [23] = system: RPMI-8226; assay: Growth inhibition of human RPMI8226 cells after 48 hrs by SRB assay; type: functional; settings: RPMI-8226, 48 h; for CC50: read-out: LC50 (the source's name)
# [24] = system: OVCAR-4; assay: Growth inhibition of human OVCAR4 cells after 48 hrs by SRB assay; type: functional; settings: OVCAR-4, 48 h
# [25] = system: Malme-3M; assay: Growth inhibition of human MALME-3M cells after 48 hrs by SRB assay; type: functional
# [26] = system: NCI-H23; assay: Growth inhibition of human NCI-H23 cells after 48 hrs by SRB assay; type: functional; settings: NCI-H23, 48 h
# [27] = system: UACC-62; assay: Growth inhibition of human UACC62 cells after 48 hrs by SRB assay; type: functional; settings: UACC-62, 48 h
# [28] = system: LOX IMVI; assay: Growth inhibition of human LOXIMVI cells after 48 hrs by SRB assay; type: functional
# [29] = system: OVCAR-5; assay: Growth inhibition of human OVCAR5 cells after 48 hrs by SRB assay; type: functional; settings: OVCAR-5, 48 h
# [30] = system: M14; assay: Growth inhibition of human M14 cells after 48 hrs by SRB assay; type: functional; settings: M14, 48 h
# [31] = system: IGROV-1; assay: Growth inhibition of human IGROV1 cells after 48 hrs by SRB assay; type: functional; settings: IGROV-1, 48 h
# [32] = system: HCC 2998; assay: Growth inhibition of human HCC2998 cells after 48 hrs by SRB assay; type: functional; settings: HCC 2998, 48 h
# [33] = system: A498; assay: Growth inhibition of human A498 cells after 48 hrs by SRB assay; type: functional; settings: A498, 48 h
# [34] = system: CAKI-1; assay: Growth inhibition of human Caki1 cells after 48 hrs by SRB assay; type: functional; settings: CAKI-1, 48 h
# [35] = system: SW-620; assay: Growth inhibition of human SW620 cells after 48 hrs by SRB assay; type: functional; settings: SW-620, 48 h
# [36] = system: KM12; assay: Growth inhibition of human KM12 cells after 48 hrs by SRB assay; type: functional; settings: KM12, 48 h
# [37] = system: SNB-75; assay: Growth inhibition of human SNB75 cells after 48 hrs by SRB assay; type: functional; settings: SNB-75, 48 h
# [38] = system: SR; assay: Growth inhibition of human SR cells after 48 hrs by SRB assay; type: functional
# [39] = system: K562; assay: Growth inhibition of human K562 cells after 48 hrs by SRB assay; type: functional; settings: K562, 48 h
# [40] = system: T47D; assay: Growth inhibition of human T47D cells after 48 hrs by SRB assay; type: functional
# [41] = system: SR; assay: Cell cycle arrest in human SR cells assessed as accumulation at G0/G1 phase at 0.0153 uM after 24 hrs using propidium iodide staining by flow cytometry; type: functional, cell-based
# [42] = system: A549; assay: Growth inhibition of human A549 cells after 48 hrs by SRB assay; type: functional; settings: A549, 48 h
# [43] = system: COLO 205; assay: Growth inhibition of human COLO205 cells after 48 hrs by SRB assay; type: functional; settings: COLO 205, 48 h
# [44] = system: HL-60(TB); assay: Growth inhibition of human HL-60(TB) cells after 48 hrs by SRB assay; type: functional; settings: HL-60, 48 h; for CC50: read-out: LC50 (the source's name)
# [45] = system: NCI/ADR-RES; assay: Growth inhibition of human NCI/ADR-RES cells after 48 hrs by SRB assay; type: functional
# [46] = system: OVCAR-8; assay: Growth inhibition of human OVCAR8 cells after 48 hrs by SRB assay; type: functional; settings: OVCAR-8, 48 h
# [47] = read-out: LC50 (the source's name)
structure (smiles),measurement,setting,value
CCCCOc1ccc(NC(=O)n2nc(N)c3ccccc32)cc1,GI50,[1],14.5 µM
same,GI50,[2],22.8 µM
same,GI50,[3],23.1 µM
same,GI50,[4],25 µM
same,GI50,[5],21.2 µM
same,GI50,[6],27.4 µM
same,GI50,[7],18.8 µM
same,GI50,[8],19.1 µM
same,GI50,[9],13.8 µM
same,GI50,[10],20.6 µM
same,GI50,[11],29.6 µM
same,GI50,[12],15.2 µM
same,GI50,[13],19.9 µM
same,GI50,[14],14 µM
same,GI50,[15],24.2 µM
same,GI50,[16],14.9 µM
same,GI50,[17],20.2 µM
same,GI50,[18],15.5 µM
same,GI50,[19],21 µM
same,GI50,[20],13.5 µM
same,GI50,[21],30.5 µM
same,GI50,[22],29.2 µM
same,GI50,[23],2.72 µM
same,TGI,[23],30.8 µM
same,CC50,[23],> 100 µM
same,GI50,[24],30.7 µM
same,GI50,[25],14.7 µM
same,GI50,[26],19.4 µM
same,GI50,[27],14.7 µM
same,GI50,[28],12.2 µM
same,GI50,[29],20 µM
same,GI50,[30],18.6 µM
same,GI50,[31],35.5 µM
same,GI50,[32],19 µM
same,GI50,[33],19 µM
same,GI50,[34],28.3 µM
same,GI50,[35],18.3 µM
same,GI50,[36],11.3 µM
same,GI50,[37],28.6 µM
same,GI50,[38],16 µM
same,GI50,[39],15.9 µM
same,GI50,[40],14.8 µM
same,Activity,[41],Active
same,GI50,[42],23.5 µM
same,GI50,[43],13.9 µM
same,GI50,[44],2.23 µM
same,TGI,[44],30.4 µM
same,CC50,[44],> 100 µM
same,GI50,[45],23.7 µM
same,GI50,[46],35.9 µM
Nc1nn(C(=O)Nc2ccc(Cc3ccccc3)cc2)c2ccccc12,GI50,[1],0.555 µM
same,TGI,[1],8.82 µM
same,CC50,[1]; [47],89.1 µM
same,GI50,[2],1.69 µM
same,TGI,[2],33.4 µM
same,CC50,[2]; [47],> 100 µM
same,GI50,[3],12.9 µM
same,GI50,[4],1.02 µM
same,TGI,[4],28.3 µM
same,CC50,[4]; [47],> 100 µM
same,GI50,[5],13.5 µM
same,GI50,[6],2.9 µM
same,TGI,[6],> 100 µM
same,CC50,[6]; [47],> 100 µM
same,GI50,[7],6.23 µM
same,GI50,[8],2.82 µM
same,TGI,[8],> 100 µM
same,CC50,[8]; [47],> 100 µM
same,GI50,[9],0.847 µM
same,TGI,[9],43.9 µM
same,CC50,[9]; [47],> 100 µM
same,GI50,[10],27.8 µM
same,GI50,[11],22.2 µM
same,GI50,[12],2.22 µM
same,TGI,[12],8.64 µM
same,CC50,[12]; [47],34.3 µM
same,GI50,[13],7.03 µM
same,GI50,[14],13.5 µM
same,GI50,[15],27.2 µM
same,GI50,[16],13.5 µM
same,GI50,[17],17.2 µM
same,GI50,[18],1.08 µM
same,TGI,[18],> 100 µM
same,CC50,[18]; [47],> 100 µM
same,GI50,[19],3.76 µM
same,GI50,[20],2.39 µM
same,TGI,[20],17.6 µM
same,CC50,[20]; [47],56.3 µM
same,GI50,[21],13.9 µM
same,GI50,[22],10 µM
same,GI50,[23],1.86 µM
same,TGI,[23],25.8 µM
same,CC50,[23],84 µM
same,GI50,[24],10.7 µM
same,GI50,[25],19.2 µM
same,GI50,[26],16.8 µM
same,GI50,[27],0.353 µM
same,TGI,[27],> 100 µM
same,CC50,[27]; [47],> 100 µM
same,GI50,[28],0.477 µM
same,LC50 (concentration killing 50% of cells),[28],61.5 µM
same,TGI,[28],16.1 µM
same,GI50,[29],31.3 µM
same,GI50,[30],0.772 µM
same,TGI,[30],> 100 µM
same,CC50,[30]; [47],> 100 µM
same,GI50,[31],6.98 µM
same,GI50,[32],4.27 µM
same,GI50,[33],16.7 µM
same,GI50,[34],21.1 µM
same,GI50,[35],3.62 µM
same,GI50,[36],2.94 µM
same,TGI,[36],> 100 µM
same,CC50,[36]; [47],> 100 µM
same,GI50,[37],17 µM
same,GI50,[38],0.0153 µM
same,TGI,[38],82.2 µM
same,CC50,[38]; [47],34.8 µM
same,GI50,[39],1.2 µM
same,LC50 (concentration killing 50% of cells),[39],> 100 µM
same,TGI,[39],33.8 µM
same,GI50,[40],1.55 µM
same,TGI,[40],> 100 µM
same,CC50,[40]; [47],> 100 µM
same,Activity,[41],Active
same,GI50,[42],12.9 µM
same,GI50,[43],13.4 µM
same,GI50,[44],0.466 µM
same,TGI,[44],15.2 µM
same,CC50,[44],54.9 µM
same,GI50,[45],7.87 µM
same,GI50,[46],21.9 µM
